Experimental findings from patent publication US11635379B2, “Portable wide field fluorimeter systems” (priority 2017, dated 2023) are described below.

In one assay the target is T1, S. Aureus (Staphylococcus aureus, UniProt P00807).
T1 construct: endogenous in cells
Briefly: Antibiotic susceptibility testing by β-LEAF fluorescence in microfluidic device with portable fluorimeter. Format: cell-based. How it is done:
In another experiment, fluorometric assay techniques were examined using a microfluidic device (e.g., the microfluidic device 102) and fluorescence images were collected using a portable wide field fluorimeter similar to the system 700 depicted in FIGS. 7A-D. In this experiment, the detection reagent was a 20 μM β-LEAF Bodipy-FL probe solution (2×stock) that was prepared in 40% DMSO in PBS, and an antibiotic solution was a […] penicillin G solution (4×stock) that was prepared by dissolving the antibiotic powder in PBS. Two different types of liquid samples were prepared. A first liquid sample (which included the antibiotic solution) was prepared by combining the 25 μl bacterial suspension, 50 μl of probe 2×stock solution, and 25 μl antibiotic 4×stock solution. […]
Data acquisition involved collecting a fluorescent reading by the camera every 3 seconds. […] Fluorescence was measured in a machine specific standard unit. […]
To analyze image data, a region of interest was selected over an area of bacteria capture corresponding to a chamber of the microfluidic device was the liquid samples were collected. Fluorescence data was extracted in a green channel. […]
The experiment was performed using two liquid samples that were introduced into a microfluidic device and monitored for fluorescence over a 10-minute time period. […]

The target of assay [1] is T2, β-lactamase producing strain (B-lac(+)) (Staphylococcus aureus, UniProt P00807).
T2 construct: a known β-lactamase producing strain (B-lac(+)); host or cells: S. aureus ATCC control strain, β-lactamase producing (B-lac(+))
T2 sequence (P00807 25-281): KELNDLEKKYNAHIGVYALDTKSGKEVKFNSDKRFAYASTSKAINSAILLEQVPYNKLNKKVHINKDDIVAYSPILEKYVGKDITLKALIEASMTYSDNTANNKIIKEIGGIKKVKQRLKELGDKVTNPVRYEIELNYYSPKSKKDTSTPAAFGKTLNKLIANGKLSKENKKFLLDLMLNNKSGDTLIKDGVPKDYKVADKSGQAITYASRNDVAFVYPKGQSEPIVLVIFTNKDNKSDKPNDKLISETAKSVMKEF
It counts as cell-based. The conditions noted are these: B-lac(+) S. aureus, β-LEAF with vs without cefazolin, 60-minute time course, 37° C.
From the text: Consequently, the fluorophores are unable to emit fluorescence due to ground state interactions between each other. However, after probe cleavage by β-lactamase, the fluorophores diffuse away from each other, are no longer quenched, and thus regain their fluorescent properties. […] If the assay is repeated in the presence of a cleavable antibiotic that competes with the β-LEAF for β-lactamase cleavage, the rate of β-LEAF cleavage will decrease, resulting in no fluorescence increase.
To encapsulate the data, the suppression of fluorescence change (ΔFs) is defined as (ΔFBL−ΔFBL+antibiotic)/ΔFBL, where ΔFBL and ΔFBL+antibiotic is the fluorescence rate of change of the β-lactamase only and β-lactamase and antibiotic conditions, respectively. […]
Time course assays were carried out with each of the two liquid samples by monitoring β-LEAF cleavage by measuring fluorescence for 60 minutes, at 1 minute intervals using a Spectramax® M5 Plate Reader (Molecular Devices). […] Fluorescence was measured in a machine specific standard unit.
In this example, β-LEAF assays were performed with the two ATCC S. aureus control bacterial strains, a known β-lactamase producing strain (B-lac(+)) and a known β-lactamase non-producing strain (B-lac(−)). […] Four test solutions were prepared and examined for time-course fluorescence intensity changes: […]

SMILES strings stand for the structures.

T1 sequence (P00807 25-281): as above

Turning to `CC1(C)S[C@@H]2[C@H](NC(=O)Cc3ccccc3)C(=O)N2[C@H]1C(=O)O` [Penicillin G], at S. Aureus (50 μl sample, 2.5e6 CFU/ml S. Aureus, fluorescent probe plus Penicillin G), the “change of fluorescence intensity over the ten-minute time period” value is given as “did not change significantly”. Besides, at S. Aureus (S. Aureus, competition with fluorescent probe), the “susceptibility of the antibiotic to cleavage by the bacteria” value was “vulnerable to cleaving”.
`Cc1nnc(SCC2=C(C(=O)O)N3C(=O)[C@@H](NC(=O)Cn4cnnn4)[C@H]3SC2)s1` [cefazolin]: the “suppression of fluorescence change (ΔFs)” value in assay [1] is approximately 1.
